Assay [1] deals with HELA S3, sarcoma 180, B-16, Colon 26, and leukemia P388. The settings on record: cited from earlier work.
In a further assay the test system is S. atroolivaceus. The assay is described as follows: Growth inhibition of S. atroolivaceus by antibiotics. The format is cell-based, Streptomyces atroolivaceus. The settings on record: for concentration for complete inhibition of growth: S. atroolivaceus; for sensitivity of S. atroolivaceus: in words. How it is done: S. atroolivaceus grows very well at 30° C.; it doesn't grow at temperature beyond 35° C. […] Thus, E. coli—Streptomyces shuttle vectors pOJ260 (suicide vector, Am^R) and pKC1139 (self-replicating vector, Am^R) were chosen to make the gene-disruption constructs pYC12 and pYC20, respectively. The concentration of antibiotic (Am) for selection of transformants/exconjugates is 50 μg/ml.

Consider `C/C1=C\[C@@H](O)C(=O)/C=C/C=C\c2csc(n2)[C@@H](C)NC(=O)C[C@@]2(CC1)[S+]([O-])SC(=O)[C@]2(C)O` (stereo partly shown) [Lnm, Leinamycin], for which the “activity against drug-resistant tumors” value in assay [1] (murine models inoculated with tumors resistant to cisplatin, doxorubicin, mitomycin, or cyclophosphamide) is “active”. Besides, the antitumor activity entry in assay [1] (murine tumor models in vivo) is “potent antitumor activity”.

Turning to `CN[C@@H]1[C@@H](O[C@H]2O[C@H](CO)[C@@H](N)[C@H](O)[C@H]2O)OC2C[C@@H](N)[C@@H](O[C@H]3[C@H](O)[C@@H](O)[C@H](N)C[C@@H]3N)OC2[C@@H]1O` (stereo partly shown) [apramycin], in the assay on S. atroolivaceus, the “concentration for complete inhibition of growth” value was 10 µg/mL and the “sensitivity of S. atroolivaceus” value is recorded as “sensitive”. The “sensitivity of S. atroolivaceus” value in the assay on S. atroolivaceus (listed as apromycin) is “highly sensitive”.

For `C=C(NC(=O)C(=C)NC(=O)c1csc(C2=N[C@@H]3c4csc(n4)[C@H]4NC(=O)c5csc(n5)[C@H]([C@](C)(O)[C@@H](C)O)NC(=O)[C@H]5CSC(=N5)/C(=C/C)NC(=O)[C@H]([C@@H](C)O)NC(=O)c5csc(n5)[C@]3(CC2)NC(=O)[C@H](C)NC(=O)C(=C)NC(=O)[C@H](C)NC(=O)[C@H]([C@@H](C)CC)N[C@@H]2C=Cc3c([C@H](C)O)cc(nc3[C@H]2O)C(=O)O[C@@H]4C)n1)C(N)=O` [thiostrepton], in the assay on S. atroolivaceus, the “concentration for complete inhibition of growth” value is 3 µg/mL and the “sensitivity of S. atroolivaceus” value is listed as “highly sensitive”.

These data come from patent US7452693B2, “Discrete acyltransferases associated with type I polyketide synthases and methods of use” (Wisconsin Alumni Research Foundation, priority 2001, dated 2008).
